Results on one compound are retold here after US7132454B2, “HEXIM1 as a suppressor of HIV replication and cardiac hypertrophy” (Regents of the University of California, priority 2004, dated 2006).

The structures appear in SMILES notation.

One series has as its system cardiac hypertrophy. Put plainly: HMBA infusion in patients having or susceptible to cardiac hypertrophy. The class given is in vivo. To be noted: 24 g/m^2/d in 10-day courses. On the procedure:
Genetic testing, and/or ECG and echocardiography are used to diagnose patients susceptible to hypertrophic cardiomyopathy using methods described by Charron et al. (1997 & 2003). For genetic testing, candidate patients are from families involved in genetic studies in whom genetic analyses are performed and the causative mutation identified. Patients are identified as being at risk of inheriting the disease gene, i.e., they have a first-degree relative clinically affected by hypertrophic cardiomyopathy. The major diagnostic criteria for echocardiography are a left ventricular wall thickness >13 mm and, for ECG, abnormal Q waves, left ventricular hypertrophy, and marked ST-T changes. Clinical evaluation is performed, and blood samples are obtained. Using methods adapted from Andreeff et al. (1992), patients diagnosed as having or susceptible to cardiac hypertrophy are given HMBA treatment. A 5% solution of HMBA (NSC-95580) in distilled water is provided in 500-ml infusion bottles (25 g total per bottle). HMBA is administered at a dose of 24 g/m^2/d in 10-day courses, followed by an 18- to 75-day observation period. Plasma levels are determined daily (at 24 hours into the infusion). […] HMBA plasma levels are determined using HPLC.

Another series has as its system HIV. To be noted: cited from earlier work.
A further series concerns HSV. To be noted: cited from earlier work.
Series [1] concerns right ventricular myocytes. Put plainly: myocardial infarction model, HMBA by osmotic minipump; ventricular myocyte hypertrophy and action potential. In kind it is in vivo, male Wistar rats. The text has this:
In a method adapted from Perrier et al. (2004), myocardial infarction (MI) is induced in 250 to 280 g male Wistar rats by left coronary artery ligation. Only post-MI hearts that show a transmural scar are used. An osmotic minipump (Alzet 2ML4) is implanted subcutaneously at the time of surgery to deliver varying amounts of HMBA or other HPC. Control animals receive carrier solution only. Cellular responses are examined over time using whole-cell, patch-clamp techniques on right ventricular myocytes. Animals are euthanized 1 and 3 weeks after surgery with intraperitoneal injection of sodium pentobarbital. Ventricular myocytes are isolated enzymatically. Cellular hypertrophy is monitored by 2-photon microscopy (Zeiss LSM 510 NLO) to calculate cell volume and the whole-cell patch-clamp technique is used to measure membrane capacitance, an electrical index of membrane surface area. To measure cell volume, the voltage-sensitive dye 1-(3-sulfonatopropyl)-[…][b-[2-(di-n-butylamino)-6-naphthyl]vinyl]pyridium betaine (di-4-ANEPPS)-loaded cells are illuminated at 840 nm with a mode-locked Ti:sapphire laser (Mira 900, Coherent) and recorded in 3D. Images of spherical beads (Molecular Probes) are recorded under the same conditions to calculate the point spread function. Deconvolution is performed with Huygens (Bitplane AG). […] AP and K^+ are measured. […]

For series [2], the system named is human vascular smooth muscle cell (VSMC). The note with it: cited from earlier work.

As to `CC(=O)NCCCCCCNC(C)=O` [HMBA, Hexamethylene bisacetamide], the “cardiac hypertrophy by morphologic analyses” value in the series with cardiac hypertrophy (certain patients) is reported as “reduces cardiac hypertrophy”. In the series on cardiac hypertrophy (patients), the most prominent toxicity entry is on record as “thrombocytopenia, generally reversible on cessation of administration”. For the same compound, the “activation of HIV” value in the series on HIV is reported as “activate viruses”. In the series on HSV, the “activation of HSV” value was “activate viruses”. Also, the action potential result in series [1] (rats after myocardial infarction, 1 and 3 weeks) was “normal action potential”. Moreover, the cellular hypertrophy entry in series [1] (rats, three weeks after myocardial infarction) is “no signs of cellular hypertrophy”. For the same compound, in series [2], the VSMC proliferation entry is “inhibit human vascular smooth muscle cell (VSMC) proliferation”.
